Assay results taken from PMC12376128, “In vitro and In Vivo Drug Metabolism Analysis of BPI-460372 - A Covalent TEAD1/3/4 Inhibitor” (Current Drug Metabolism, 2025).
Where two headings read alike, the source gives them in different places.

Legend:
[1] = system: human hepatocytes; experiment: Metabolism and metabolite formation in hepatocytes
Method: (§5) 10 µM BPI-460372 was incubated in five species (human, cynomolgus monkey, beagle dog, SD rat, and ICR mouse) hepatocytes (1 × 10^6 cells·min^-1) at 37 °C for 4 h. 7-EC, as positive control, was incubated for 0 h and 4 h. For blank control, hepatocytes were inactivated by adding ice-cold acetonitrile, and then the BPI-460372 solution was added. All the samples were duplicates. Incubations were stopped using the same volume of cold acetonitrile. The tube was vortexed, and the duplicate samples were combined. Metabolite profiling and identification of BPI-460372 were conducted by using UHPLC-Orbitrap-HRMS. The samples of 7-EC were analyzed by LC-MS/MS and then semi-quantified using the peak area ratio of analyte versus IS.
(§6) For hepatocyte metabolite identification, the different metabolites of BPI-460372 were detected using an ACQUITY UPLC HSS T3 column (1.8 µm, 100 mm × 2.1 mm) and ACQUITY UPLC BEH C18 column (1.7 µm, 100 mm × 2.1 mm) for rat and dog metabolite identification. The mobile phase contained a mixture of 0.1% formic acid in water (A) and 0.1% formic acid in acetonitrile (B). The gradient elution program was as follows: 0.0-1.0 min, 5% B; 1.0-7.0 min, 5%-30% B; 7.0-12.0 min, 30%-80% B; 12.0-16.0 min, 80%-95% B; 16.0-18.0 min, 95% B; 18.0-18.1 min, 95%-5% B. Then, 5% B from 18.1 to 20.0 min was maintained for equilibration. The flow rate was set to 0.5 mL/min, and the column temperature was kept at 40°C. Eluted fractions were monitored by a UV detector at 314 nm.

[2] = system: mouse hepatocytes; experiment: Metabolism and metabolite formation in hepatocytes; format: in vitro ADME, ICR mouse;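 for Area Ratio T0 h: peak area of analyte divided by internal standard peak area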;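 for Area Ratio T4 h: peak area of analyte divided by internal standard peak area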
Text: (§1) All the samples were duplicates.

[3] = system: dog hepatocytes; experiment: Metabolism and metabolite formation in hepatocytes; format: in vitro ADME, beagle dog;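 for Area Ratio T0 h: peak area of analyte divided by internal standard peak area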;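 for Area Ratio T4 h: peak area of analyte divided by internal standard peak area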
Text: as §1

[4] = system: human hepatocytes; conditions: 0 h
Method: as §5, §6

[5] = system: monkey hepatocytes; experiment: Metabolism and metabolite formation in hepatocytes; format: in vitro ADME, cynomolgus monkey;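 for Area Ratio T4 h: peak area of analyte divided by internal standard peak area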
Text: as §1

[6] = system: rat hepatocytes; experiment: Metabolism and metabolite formation in hepatocytes; format: in vitro ADME, SD rat;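 for Area Ratio T0 h: peak area of analyte divided by internal standard peak area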
Text: as §1

[7] = system: CYPs and GSTs; parameters: method as in earlier work; conditions: multiple CYPs and GSTs pathways; cited from earlier work
[8] = Metabolite identification in rat plasma, urine, feces and bile; format: in vivo, SD rats
Method: (§2) The plasma samples were acquired from SD rats (n=6, 3 female and 3 male) and beagle dogs (n=6, 3 female and 3 male) after administration of 12 mg/kg and 8 mg/kg of BPI-460372, respectively. The rat urine, feces, and bile samples were acquired in SD rats after administration of 6 mg/kg of BPI-460372.
(§3) Equal volume from each rat was pooled together to get 1 male and 1 female 0-24 h plasma samples. An equal percentage by volume of individual urine sample (0-8, 8-24, and 24-48 h) from 3 female and 3 male rats was pooled by time interval across rats, respectively, resulting in two pooled urine samples (1 male and 1 female). An equal percentage by weight of individual feces samples (0-8, 8-24, and 24-48 h) was pooled by time interval across female and male rats, resulting in two pooled fecal samples. An equal percentage by volume of individual bile samples (0-4, 4-8, 8-24, and 24-48 h) was pooled by time interval across female and male rats, resulting in two pooled bile samples. […] Equal volumes from 3 female and 3 male rats were pooled together to get two 0-48 h plasma samples. For blank samples of plasma, urine, and bile, equal volume was pooled across subjects. For a blank sample of feces, equal weight was pooled across rats.
(§4) The pooled plasma, feces, and bile samples were extracted by adding 3-fold volume of acetonitrile, and the mixture was vortexed (1 min) and sonicated (1 min) before centrifugation (7220 g, 5 min). The pooled urine samples were centrifuged (7220 g, 5 min). Then the supernatant was transferred into a clean tube and evaporated to dryness under the nitrogen stream. The residues were redissolved with an appropriate volume of acetonitrile/water (20: 80, v: v). After centrifugation, the redissolved solution was transferred into an HPLC vial for UHPLC-Orbitrap-HRMS (15000 g, 10 min, 4°C).

[9] = Metabolite identification in dog plasma; format: in vivo, beagle dogs; conditions: oral 8 mg/kg BPI-460372, average of male and female pooled samples
Method: as §2, §3, §4

[10] = system: TEAD proteins; experiment: Covalent binding to TEAD proteins (in vitro); conditions: in vitro studies
[11] = system: TEAD palmitoylation; experiment: Inhibition of TEAD palmitoylation (in vitro); format: biochemical; conditions: in vitro studies
[12] = system: cysteine S-conjugate β-lyase; experiment: Effect of cysteine S-conjugate β-lyase inhibitor AOAA on the metabolism of BPI-460372 (rat urine); conditions: 20 mg/kg BPI-460372 + 100 mg/kg AOAA, once daily 21 days, urine 0-48 h on day 21
Method: To investigate the effect of cysteine S-conjugate β-lyase on the metabolism of BPI-460372, SD rats were treated with 20 mg/kg BPI-460372 alone (n=3, male) or 20 mg/kg BPI-460372 coadministration with 100 mg/kg cysteine S-conjugate β-lyase inhibitor AOAA (n=3, male), once daily for 21 consecutive days. On day 21, urine samples were collected at 0-8, 8-24 and 24-48 h. The same percentage of urine samples from each rat was taken at these three time intervals and mixed. The samples were analyzed by LC-MS/MS and then semi-quantified using the peak area ratio of analyte versus IS.

[13] = Formation of M335 in HLMs with and without NADPH; format: in vitro ADME, human; conditions: 45 minutes of incubation of BPI-460372 with HLMs
[14] = parameters: method as in PMID 32250617; conditions: mouse whole blood, compared with compound 18 (acrylamide warhead); cited from earlier work
[15] = parameters: method as in PMID 32250617; conditions: dog whole blood, compared with compound 18 (acrylamide warhead); cited from earlier work
[16] = parameters: method as in PMID 32250617; conditions: human whole blood, compared with compound 18 (acrylamide warhead); cited from earlier work
[17] = oral 6 mg/kg BPI-460372, average of male and female pooled samples

For `CCOc1ccc2ccc(=O)oc2c1` [7-EC, 7-ethoxycoumarin, reference compound], the “Area Ratio T4 h” value ([1]; human hepatocytes, 7-EC incubation, 4 h) was 7.50E+06, the “Proportion of 7-EC remaining in hepatocytes after 4 h incubation” value (from here on “Proportion of 7-EC remaining”) ([1]; human, hepatocytes) was 22.32% and the “Area Ratio T0 h” value ([2]; mouse hepatocytes, 7-EC incubation, 0 h) was 2.39E+07. For the same molecule, the “Area Ratio T4 h” value ([2]; mouse hepatocytes, 7-EC incubation, 4 h) was 1.46E+05, the “Proportion of 7-EC remaining” value ([2]; mouse, hepatocytes) was 0.61% and the “Area Ratio T0 h” value ([3]; dog hepatocytes, 7-EC incubation, 0 h) was 2.18E+07. The “Area Ratio T4 h” value ([3]; dog hepatocytes, 7-EC incubation, 4 h) was 1.01E+05, the “Proportion of 7-EC remaining” value ([3]; dog, hepatocytes) was 0.46% and the “Area Ratio T0 h” value [4] was 3.36E+07. For the same molecule, the “Area Ratio T0 h” value ([5]; monkey hepatocytes, 7-EC incubation, 0 h) was 2.65E+07, the “Area Ratio T4 h” value ([5]; monkey hepatocytes, 7-EC incubation, 4 h) was 9.51E+04 and the “Proportion of 7-EC remaining” value ([5]; monkey, hepatocytes) was 0.36%. The “Area Ratio T0 h” value ([6]; rat hepatocytes, 7-EC incubation, 0 h) was 2.64E+07, the “Area Ratio T4 h” value ([6]; rat hepatocytes, 7-EC incubation, 4 h) was 6.62E+06 and the “Proportion of 7-EC remaining” value ([6]; rat, hepatocytes) was 25.08%.

For `C=CC(=O)N1C[C@H](Nc2ncnc3[nH]ccc23)CC[C@@H]1C` [Ritlecitinib], the “Contribution of any single route to the total metabolism” value [7] is given as at most 25%.

In the case of `O=c1n(-c2ccc(C(F)(F)F)cc2)c2nccnc2n1C1CNC1` [M335 (BPI-460608)], the “Relative abundance of MS peak areas, Rat Bile 0-48 h” value [8, 17] is reported as 0.070%, the “Relative abundance of MS peak areas, Rat Feces 0-48 h” value [8, 17] is reported as 4.83% and the “Relative abundance of MS peak areas, Rat Urine 0-48 h” value [8, 17] is reported as 13.23%. For the same molecule, the “Relative abundance of MS peak areas, Rat Plasma 0-24 h” value ([8]; oral 12 mg/kg BPI-460372, average of male and female pooled samples) was 2.48%, the “Relative abundance of MS peak areas, Dog Plasma 0-48 h” value [9] was 8.45% and the “Covalent binding to TEAD proteins” value [10] was “do not covalently bind”. For the same molecule, the “Activity: inhibition of TEAD palmitoylation” value [11] was “inactive”, the “UV (314 nm) Peak Areas Relative Abundance” value ([1]; human hepatocytes, 10 µM BPI-460372, 4 h incubation) was 11.47% and the “UV (314 nm) Peak Areas Relative Abundance” value ([2]; ICR mouse hepatocytes, 10 µM BPI-460372, 4 h incubation) was 26.4%. The “Area ratio in rat urine, mean (%CV)” value [12] was 1.41 (48), the “UV (314 nm) Peak Areas Relative Abundance” value ([3]; beagle dog hepatocytes, 10 µM BPI-460372, 4 h incubation) was 18.82% and the “Formation of M335 without NADPH versus HLMs+NADPH group” value [13] was “comparable”. For the same molecule, the “UV (314 nm) Peak Areas Relative Abundance” value ([5]; cynomolgus monkey hepatocytes, 10 µM BPI-460372, 4 h incubation) was 16.99% and the “UV (314 nm) Peak Areas Relative Abundance” value ([6]; SD rat hepatocytes, 10 µM BPI-460372, 4 h incubation) was 3.9%.

In the case of `C=C(F)C(=O)N1CCN(c2nc(OC[C@@H]3CCCN3C)nc3c2CCN(c2cccc4cccc(Cl)c24)C3)C[C@@H]1CC#N` [Adagrasib], the “Stability in whole blood” value [14] is listed as “higher stability”, the “Stability in whole blood” value [15] is listed as “higher stability” and the “Stability in whole blood” value [16] is listed as “higher stability”.
